# Assay results reported in patent US20190134005A1 (BioMarin Pharmaceutical Inc., priority 2016, published 2019).
# Biological target: T1, human CGT (Homo sapiens, UniProt Q16880)
# T1 sequence (Q16880 21-541): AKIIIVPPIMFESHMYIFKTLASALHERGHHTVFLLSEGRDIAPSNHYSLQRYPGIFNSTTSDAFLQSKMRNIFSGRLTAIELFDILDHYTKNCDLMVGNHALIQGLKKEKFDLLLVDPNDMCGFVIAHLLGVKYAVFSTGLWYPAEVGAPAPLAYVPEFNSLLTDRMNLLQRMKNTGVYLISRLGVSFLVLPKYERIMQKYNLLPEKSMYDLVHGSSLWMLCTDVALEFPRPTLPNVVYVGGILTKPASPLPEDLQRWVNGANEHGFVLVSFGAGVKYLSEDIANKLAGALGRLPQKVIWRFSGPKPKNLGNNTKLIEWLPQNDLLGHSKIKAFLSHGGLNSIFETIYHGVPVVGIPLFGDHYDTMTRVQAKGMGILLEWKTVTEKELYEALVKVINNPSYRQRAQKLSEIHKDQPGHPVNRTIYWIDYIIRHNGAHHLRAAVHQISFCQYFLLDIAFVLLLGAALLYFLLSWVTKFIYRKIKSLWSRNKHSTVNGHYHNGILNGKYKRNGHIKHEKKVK
# Assay: CGT Enzyme Assay (Biological Example 2, RapidFire/MS/MS method with 0.01% Tween 80 added)
# Assay type: biochemical
# Conditions: enzymatic assay, CHO/CGT lysate
# In short: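 Lysate of CHO cells transfected with full-length human CGT, 0.5% DMSO final, 0.01% Tween 80 added; reactions stopped with methanol:acetonitrile holding internal standard. C6-NBD-dihydro-galactosylceramide and C6-NBD-dihydro-ceramide measured by RapidFire/MS/MS (ESI negative), product peak area normalized to internal standard.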
row,Structure (SMILES),IC50
1,CC1(C)C(c2cccc(C(F)(F)F)c2)N(c2ccc(Cl)cc2)C(=O)N1c1ccc(Cl)cc1 (stereo not shown) [Example 6],< 1 µM
2,"N#Cc1ccc(N2C(=O)N(c3ccc(Cl)cc3)[C@@H](c3cccc(OC(F)(F)F)c3)C23COC3)cc1 [Example 46-2, (S)-4-(7-(4-chlorophenyl)-6-oxo-8-(3-(trifluoromethoxy)phenyl)-2-oxa-5,7-diazaspiro[3.4]octan-5-yl)benzonitrile]",1 to 10 µM
3,CC1(C)C(c2cccc(OC(F)(F)F)c2)N(c2ccc(Cl)cc2)C(=O)N1c1ccc(Cl)cc1 (stereo not shown) [Example 7],< 1 µM
4,"CC[C@]1(C)[C@@H](c2cccc(OC(F)(F)F)c2)N(c2ccc(Cl)cc2)C(=O)N1c1ccc(Cl)cc1 [Example 19-1, (4R,5R)-1,3-bis(4-chlorophenyl)-4-ethyl-4-methyl-5-(3-(trifluoromethoxy)phenyl)imidazolidin-2-one]",1 to 10 µM
5,"C[C@@H]1[C@@H](c2cccc(C#N)c2)N(c2ccc(Cl)cc2)C(=O)N1c1ccc(Cl)cc1 [Example 5-1, 3-((4R,5R)-1,3-bis(4-chlorophenyl)-5-methyl-2-oxoimidazolidin-4-yl)benzonitrile]",10 to 30 µM
6,"CC1(C)[C@@H](c2cccc(OC(F)(F)F)c2)N(c2ccc(Cl)cc2)C(=O)N1c1ccc(Cl)cc1 [Example 7-1, (R)-1,3-bis(4-chlorophenyl)-4,4-dimethyl-5-(3-(trifluoromethoxy)phenyl)imidazolidin-2-one]",1 to 10 µM
7,C[C@@]1(C(F)(F)F)[C@H](c2cccc(OC(F)(F)F)c2)N(c2ccc(Cl)cc2)C(=O)N1c1ccc(Cl)cc1 [Example 25-1],< 1 µM

# More lines, now with the values ahead:
row,IC50,Structure (SMILES)
1,1 to 10 µM,"CC[C@@]1(C)[C@H](c2cccc(OC(F)(F)F)c2)N(c2ccc(C#N)cc2)C(=O)N1c1ccc(C#N)cc1 [Example 51-5, 4,4′-((4S,5S)-4-ethyl-4-methyl-2-oxo-5-(3-(trifluoromethoxy)phenyl)imidazolidine-1,3-diyl)dibenzonitrile]"
2,1 to 10 µM,"CC1(C)[C@H](c2cccc(OC(F)(F)F)c2)N(c2ccccc2)C(=O)N1c1ccccc1 [Example 26-2, (S)-4,4-dimethyl-1,3-diphenyl-5-(3-(trifluoromethoxy)phenyl)imidazolidin-2-one]"
3,10 to 30 µM,"Cc1ccc(N2C(=O)N(c3ccc(C#N)cc3)[C@@H](c3cccc(OC(F)(F)F)c3)C2(C)C)cc1 [Example 50-2, (S)-4-(4,4-dimethyl-2-oxo-3-(p-tolyl)-5-(3-(trifluoromethoxy)phenyl)imidazolidin-1-yl)benzonitrile]"
4,< 1 µM,"Cc1ccc(N2C(=O)N(c3ccc(C#N)cc3)C(C)(C)[C@@H]2c2cccc(C#N)c2)cc1 [Example 54-2, (S)-3-(1-(4-cyanophenyl)-5,5-dimethyl-2-oxo-3-(p-tolyl)imidazolidin-4-yl)benzonitrile]"
5,1 to 10 µM,"Cc1ccc(N2C(=O)N(c3ccc(C#N)cc3)[C@@H](c3cccc(C#N)c3)C23COC3)cc1 [Example 55-2, (S)-3-(7-(4-cyanophenyl)-6-oxo-5-(p-tolyl)-2-oxa-5,7-diazaspiro[3.4]octan-8-yl)benzonitrile]"
6,1 to 10 µM,"N#Cc1cccc([C@]23CCCC[C@H]2N(c2ccc(Cl)cc2)C(=O)N3c2ccc(Cl)cc2)c1 [Example 14-1, 3-((3aR,7aR)-1,3-bis(4-chlorophenyl)-2-oxooctahydro-3aH-benzo[d]imidazol-3a-yl)benzonitrile]"
7,1 to 10 µM,C[C@]1(C(F)(F)F)[C@@H](c2cccc(OC(F)(F)F)c2)N(c2ccc(Cl)cc2)C(=O)N1c1ccc(Cl)cc1 [Example 25-2]
8,< 1 µM,"CCC[C@]1(C)[C@@H](c2cccc(OC(F)(F)F)c2)N(c2ccc(Cl)cc2)C(=O)N1c1ccc(Cl)cc1 [Example 22-2, (4R,5R)-1,3-bis(4-chlorophenyl)-4-methyl-4-propyl-5-(3-(trifluoromethoxy)phenyl)imidazolidin-2-one]"
9,10 to 30 µM,"CC[C@@]1(C)[C@@H](c2cccc(OC(F)(F)F)c2)N(c2ccc(C#N)cc2)C(=O)N1c1ccc(C#N)cc1 [Example 51-6, 4,4′-((4S,5R)-4-ethyl-4-methyl-2-oxo-5-(3-(trifluoromethoxy)phenyl)imidazolidine-1,3-diyl)dibenzonitrile]"
